Assay [1] has as its target AP2-associated protein kinase 1 (Homo sapiens, UniProt Q2M2I8).
Assay [2] deals with Atypical kinase COQ8A, mitochondrial (Homo sapiens, UniProt Q8NI60).
The target of assay [3] is T1, Discoidin domain-containing receptor 2 (Homo sapiens, UniProt Q16832).
T1 sequence (Q16832 whole entry): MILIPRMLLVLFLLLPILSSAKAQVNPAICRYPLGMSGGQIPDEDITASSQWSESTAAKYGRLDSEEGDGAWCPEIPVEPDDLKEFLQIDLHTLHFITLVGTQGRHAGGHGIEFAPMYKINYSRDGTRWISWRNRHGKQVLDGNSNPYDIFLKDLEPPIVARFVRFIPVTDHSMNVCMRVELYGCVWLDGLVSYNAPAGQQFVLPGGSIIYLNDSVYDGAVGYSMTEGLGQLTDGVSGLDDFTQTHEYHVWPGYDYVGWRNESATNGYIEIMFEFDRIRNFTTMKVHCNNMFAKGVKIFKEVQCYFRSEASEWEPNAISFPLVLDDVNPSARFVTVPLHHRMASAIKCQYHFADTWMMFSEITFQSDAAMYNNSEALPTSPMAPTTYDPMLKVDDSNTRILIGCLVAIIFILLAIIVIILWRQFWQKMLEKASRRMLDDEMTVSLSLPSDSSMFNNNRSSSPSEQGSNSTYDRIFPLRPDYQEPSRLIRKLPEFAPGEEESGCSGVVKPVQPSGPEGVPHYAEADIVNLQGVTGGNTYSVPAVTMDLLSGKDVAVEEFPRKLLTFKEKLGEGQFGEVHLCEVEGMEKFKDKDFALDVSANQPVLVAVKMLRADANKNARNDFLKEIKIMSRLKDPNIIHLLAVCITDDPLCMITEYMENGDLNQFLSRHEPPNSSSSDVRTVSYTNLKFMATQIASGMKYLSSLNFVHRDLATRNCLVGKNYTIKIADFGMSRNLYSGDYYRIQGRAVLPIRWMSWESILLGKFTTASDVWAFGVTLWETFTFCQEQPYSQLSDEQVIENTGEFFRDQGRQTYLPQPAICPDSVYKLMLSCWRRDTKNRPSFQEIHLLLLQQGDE

In assay [4] the target is Fibroblast growth factor receptor 1 (Homo sapiens, UniProt P11362).
Assay [5] has as its target Tyrosine-protein kinase HCK (Homo sapiens, UniProt P08631).
Assay [6] deals with T2, Mitogen-activated protein kinase kinase kinase 5 (Homo sapiens, UniProt Q99683).
T2 sequence (Q99683 whole entry): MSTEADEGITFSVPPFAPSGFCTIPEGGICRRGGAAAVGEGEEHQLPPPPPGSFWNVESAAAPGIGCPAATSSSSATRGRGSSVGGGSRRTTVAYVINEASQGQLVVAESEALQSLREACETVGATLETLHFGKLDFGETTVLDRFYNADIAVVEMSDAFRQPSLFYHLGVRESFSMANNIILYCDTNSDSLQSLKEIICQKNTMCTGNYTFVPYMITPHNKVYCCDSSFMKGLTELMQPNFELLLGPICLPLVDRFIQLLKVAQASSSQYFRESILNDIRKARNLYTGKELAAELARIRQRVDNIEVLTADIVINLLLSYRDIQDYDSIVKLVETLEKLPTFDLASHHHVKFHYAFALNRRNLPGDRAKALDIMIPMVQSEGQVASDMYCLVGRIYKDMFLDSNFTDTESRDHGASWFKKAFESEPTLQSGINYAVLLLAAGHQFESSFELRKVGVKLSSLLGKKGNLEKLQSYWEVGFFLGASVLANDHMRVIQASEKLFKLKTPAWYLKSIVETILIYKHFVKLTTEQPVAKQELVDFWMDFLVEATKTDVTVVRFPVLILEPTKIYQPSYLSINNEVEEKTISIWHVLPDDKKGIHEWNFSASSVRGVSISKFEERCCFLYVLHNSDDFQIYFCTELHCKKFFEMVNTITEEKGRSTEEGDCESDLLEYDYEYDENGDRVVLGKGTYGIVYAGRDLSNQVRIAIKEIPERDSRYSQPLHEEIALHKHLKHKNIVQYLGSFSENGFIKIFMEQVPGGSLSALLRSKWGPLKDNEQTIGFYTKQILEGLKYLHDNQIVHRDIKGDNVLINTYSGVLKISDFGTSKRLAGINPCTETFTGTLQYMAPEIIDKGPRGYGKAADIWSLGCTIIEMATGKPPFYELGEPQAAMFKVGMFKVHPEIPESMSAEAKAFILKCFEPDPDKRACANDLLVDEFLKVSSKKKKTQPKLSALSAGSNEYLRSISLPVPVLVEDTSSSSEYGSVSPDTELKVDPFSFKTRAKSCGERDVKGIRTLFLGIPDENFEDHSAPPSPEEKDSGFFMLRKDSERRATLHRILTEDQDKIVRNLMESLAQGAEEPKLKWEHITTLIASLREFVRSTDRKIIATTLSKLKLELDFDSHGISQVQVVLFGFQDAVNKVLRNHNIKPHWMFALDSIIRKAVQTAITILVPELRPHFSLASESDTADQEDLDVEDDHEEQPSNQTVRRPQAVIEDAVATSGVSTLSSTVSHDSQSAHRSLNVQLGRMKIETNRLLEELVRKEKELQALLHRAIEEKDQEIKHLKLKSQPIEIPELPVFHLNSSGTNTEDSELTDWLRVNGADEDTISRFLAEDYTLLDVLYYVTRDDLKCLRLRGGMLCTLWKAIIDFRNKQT

Assay [7] addresses Mitogen-activated protein kinase kinase kinase kinase 4 (Homo sapiens, UniProt O95819).
Assay [8] deals with T3, Mitogen-activated protein kinase 15 (Homo sapiens, UniProt Q8TD08).
T3 sequence (Q8TD08 whole entry): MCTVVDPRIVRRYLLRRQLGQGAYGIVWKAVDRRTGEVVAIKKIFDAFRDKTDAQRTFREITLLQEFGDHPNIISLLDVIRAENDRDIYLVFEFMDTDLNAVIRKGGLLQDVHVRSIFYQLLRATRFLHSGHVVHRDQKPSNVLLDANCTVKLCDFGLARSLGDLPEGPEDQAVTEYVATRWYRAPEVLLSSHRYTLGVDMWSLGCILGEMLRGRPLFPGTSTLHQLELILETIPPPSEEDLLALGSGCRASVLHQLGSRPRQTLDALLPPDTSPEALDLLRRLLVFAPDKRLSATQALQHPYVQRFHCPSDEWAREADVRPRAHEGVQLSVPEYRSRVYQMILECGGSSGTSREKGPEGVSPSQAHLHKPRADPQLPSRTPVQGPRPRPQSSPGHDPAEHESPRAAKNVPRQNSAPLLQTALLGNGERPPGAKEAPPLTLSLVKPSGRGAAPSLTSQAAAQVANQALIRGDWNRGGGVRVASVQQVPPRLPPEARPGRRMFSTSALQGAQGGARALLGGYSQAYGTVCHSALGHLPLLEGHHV

SMILES strings stand for the structures. Active and inactive are the calls of the source. Rule as the data show it, for most assays here: actives have a measured Kd and inactives only a lower limit. Where only a bound is given, the exact number is not on record here.
Also: in the data inactive means no Kd found up to 30 µM.

Atypical kinase COQ8A, mitochondrial, sequence (Q8NI60 whole entry, the tested form may be a part): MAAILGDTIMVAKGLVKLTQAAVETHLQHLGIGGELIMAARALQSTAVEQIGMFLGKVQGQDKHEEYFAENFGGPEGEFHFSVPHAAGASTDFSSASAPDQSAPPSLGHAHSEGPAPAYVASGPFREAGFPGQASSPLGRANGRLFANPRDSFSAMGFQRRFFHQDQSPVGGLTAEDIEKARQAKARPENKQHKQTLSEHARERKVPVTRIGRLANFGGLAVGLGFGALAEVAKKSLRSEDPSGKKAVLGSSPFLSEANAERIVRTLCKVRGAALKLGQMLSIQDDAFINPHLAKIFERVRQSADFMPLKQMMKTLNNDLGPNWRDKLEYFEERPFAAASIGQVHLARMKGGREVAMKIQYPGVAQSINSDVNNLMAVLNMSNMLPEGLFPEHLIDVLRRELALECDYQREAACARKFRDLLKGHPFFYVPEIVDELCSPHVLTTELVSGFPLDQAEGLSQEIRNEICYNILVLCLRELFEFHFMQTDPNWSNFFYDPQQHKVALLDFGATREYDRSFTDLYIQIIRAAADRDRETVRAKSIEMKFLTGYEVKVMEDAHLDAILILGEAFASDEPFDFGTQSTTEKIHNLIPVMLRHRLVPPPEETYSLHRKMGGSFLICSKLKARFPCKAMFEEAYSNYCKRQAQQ
AP2-associated protein kinase 1, sequence (Q2M2I8 whole entry): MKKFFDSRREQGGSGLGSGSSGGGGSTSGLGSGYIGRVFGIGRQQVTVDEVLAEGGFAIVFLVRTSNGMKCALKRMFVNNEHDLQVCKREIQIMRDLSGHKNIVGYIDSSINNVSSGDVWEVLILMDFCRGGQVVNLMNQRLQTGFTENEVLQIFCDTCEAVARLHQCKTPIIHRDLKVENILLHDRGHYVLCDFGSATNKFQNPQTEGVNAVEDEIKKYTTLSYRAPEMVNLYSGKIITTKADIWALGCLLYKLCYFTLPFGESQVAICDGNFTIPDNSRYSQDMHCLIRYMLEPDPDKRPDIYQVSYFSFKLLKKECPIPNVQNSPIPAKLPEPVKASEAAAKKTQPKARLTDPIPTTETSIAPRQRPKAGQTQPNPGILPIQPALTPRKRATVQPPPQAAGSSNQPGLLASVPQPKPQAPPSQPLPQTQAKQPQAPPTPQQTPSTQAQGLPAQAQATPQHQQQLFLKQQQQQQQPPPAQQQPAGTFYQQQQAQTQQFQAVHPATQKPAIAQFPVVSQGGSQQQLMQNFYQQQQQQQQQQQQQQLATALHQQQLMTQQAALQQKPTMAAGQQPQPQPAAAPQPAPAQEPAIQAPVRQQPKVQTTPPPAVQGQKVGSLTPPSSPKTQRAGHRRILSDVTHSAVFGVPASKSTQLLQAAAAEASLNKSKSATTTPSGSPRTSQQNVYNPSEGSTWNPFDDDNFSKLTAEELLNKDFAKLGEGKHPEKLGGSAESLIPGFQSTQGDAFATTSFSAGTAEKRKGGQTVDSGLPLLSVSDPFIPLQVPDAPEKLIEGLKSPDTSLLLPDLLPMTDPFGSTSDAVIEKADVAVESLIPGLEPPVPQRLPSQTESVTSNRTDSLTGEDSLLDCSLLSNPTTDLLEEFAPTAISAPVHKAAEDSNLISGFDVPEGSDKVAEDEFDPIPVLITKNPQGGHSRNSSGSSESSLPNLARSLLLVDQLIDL
Mitogen-activated protein kinase kinase kinase kinase 4, sequence (O95819 whole entry): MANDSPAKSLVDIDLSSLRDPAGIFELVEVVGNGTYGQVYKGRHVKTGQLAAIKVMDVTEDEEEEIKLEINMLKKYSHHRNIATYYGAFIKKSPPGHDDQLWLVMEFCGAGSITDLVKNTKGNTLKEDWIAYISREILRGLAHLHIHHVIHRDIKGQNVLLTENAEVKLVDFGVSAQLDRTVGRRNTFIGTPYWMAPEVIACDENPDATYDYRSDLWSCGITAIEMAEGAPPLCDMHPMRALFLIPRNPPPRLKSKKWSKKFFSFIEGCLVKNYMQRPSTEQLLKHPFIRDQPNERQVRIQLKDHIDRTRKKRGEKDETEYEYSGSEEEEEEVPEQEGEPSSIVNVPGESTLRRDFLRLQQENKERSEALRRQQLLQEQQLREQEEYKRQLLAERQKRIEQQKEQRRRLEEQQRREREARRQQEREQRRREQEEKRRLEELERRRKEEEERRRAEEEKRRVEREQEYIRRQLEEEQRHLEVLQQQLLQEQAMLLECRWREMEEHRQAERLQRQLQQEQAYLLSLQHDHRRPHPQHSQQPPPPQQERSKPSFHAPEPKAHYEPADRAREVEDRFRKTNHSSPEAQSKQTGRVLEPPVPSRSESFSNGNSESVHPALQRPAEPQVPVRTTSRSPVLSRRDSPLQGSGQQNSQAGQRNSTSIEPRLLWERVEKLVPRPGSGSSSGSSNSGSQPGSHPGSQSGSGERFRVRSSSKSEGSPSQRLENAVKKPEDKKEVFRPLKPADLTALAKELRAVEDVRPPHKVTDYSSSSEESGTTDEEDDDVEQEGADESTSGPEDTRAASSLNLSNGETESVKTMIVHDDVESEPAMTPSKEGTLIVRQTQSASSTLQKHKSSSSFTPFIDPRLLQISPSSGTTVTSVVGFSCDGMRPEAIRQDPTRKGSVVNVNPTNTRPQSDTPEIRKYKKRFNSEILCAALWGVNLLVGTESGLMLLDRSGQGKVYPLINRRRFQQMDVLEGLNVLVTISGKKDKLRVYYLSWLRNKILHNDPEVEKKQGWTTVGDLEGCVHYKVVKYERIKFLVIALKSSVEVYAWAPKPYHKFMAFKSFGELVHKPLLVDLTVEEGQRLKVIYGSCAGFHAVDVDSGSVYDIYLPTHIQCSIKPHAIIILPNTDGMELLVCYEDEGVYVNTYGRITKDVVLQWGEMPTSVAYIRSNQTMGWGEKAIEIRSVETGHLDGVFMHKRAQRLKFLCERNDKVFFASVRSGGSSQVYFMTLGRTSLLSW
Tyrosine-protein kinase HCK, sequence (P08631 whole entry): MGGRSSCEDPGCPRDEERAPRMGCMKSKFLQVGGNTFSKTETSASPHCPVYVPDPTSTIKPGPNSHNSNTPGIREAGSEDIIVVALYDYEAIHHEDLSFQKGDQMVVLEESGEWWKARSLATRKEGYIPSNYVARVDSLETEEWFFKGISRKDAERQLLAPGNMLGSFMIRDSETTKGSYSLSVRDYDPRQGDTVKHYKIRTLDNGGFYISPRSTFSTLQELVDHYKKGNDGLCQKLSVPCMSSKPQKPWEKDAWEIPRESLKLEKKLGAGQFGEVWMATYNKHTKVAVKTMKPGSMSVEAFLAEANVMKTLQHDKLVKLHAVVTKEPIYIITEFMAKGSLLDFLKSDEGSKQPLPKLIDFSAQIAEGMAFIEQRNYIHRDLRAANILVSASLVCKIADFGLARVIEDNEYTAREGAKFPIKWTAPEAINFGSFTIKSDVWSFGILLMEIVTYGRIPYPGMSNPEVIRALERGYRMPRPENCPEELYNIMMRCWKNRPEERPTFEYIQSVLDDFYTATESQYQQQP
Fibroblast growth factor receptor 1, sequence (P11362 whole entry): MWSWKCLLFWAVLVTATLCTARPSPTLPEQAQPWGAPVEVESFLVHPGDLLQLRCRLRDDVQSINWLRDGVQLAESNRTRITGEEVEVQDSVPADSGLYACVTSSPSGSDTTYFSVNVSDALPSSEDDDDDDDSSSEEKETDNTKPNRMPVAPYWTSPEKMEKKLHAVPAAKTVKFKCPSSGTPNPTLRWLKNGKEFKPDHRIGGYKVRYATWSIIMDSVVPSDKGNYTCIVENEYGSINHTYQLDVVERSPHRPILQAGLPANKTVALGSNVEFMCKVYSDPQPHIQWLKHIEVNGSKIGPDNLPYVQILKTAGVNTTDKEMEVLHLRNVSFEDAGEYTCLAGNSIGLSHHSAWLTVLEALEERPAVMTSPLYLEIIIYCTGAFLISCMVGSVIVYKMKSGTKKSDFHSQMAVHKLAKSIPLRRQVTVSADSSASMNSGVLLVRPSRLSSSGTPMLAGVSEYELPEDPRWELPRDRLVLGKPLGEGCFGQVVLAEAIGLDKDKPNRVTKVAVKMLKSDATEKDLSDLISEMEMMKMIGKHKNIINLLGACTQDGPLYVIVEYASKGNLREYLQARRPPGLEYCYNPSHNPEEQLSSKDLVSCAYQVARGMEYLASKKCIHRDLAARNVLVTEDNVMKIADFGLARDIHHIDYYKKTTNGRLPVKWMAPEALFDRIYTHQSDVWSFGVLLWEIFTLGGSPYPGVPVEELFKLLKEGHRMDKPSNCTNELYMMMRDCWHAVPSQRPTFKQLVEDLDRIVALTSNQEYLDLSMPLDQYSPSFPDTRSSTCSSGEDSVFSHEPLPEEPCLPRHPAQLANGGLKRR

Usually Kd stands for the concentration at which binding is half-saturated. `CN1CCC(COc2cnc(-c3cccc(Cn4nc(-c5cccc(C#N)c5)ccc4=O)c3)nc2)CC1` [TEPOTINIB]: the Kd in assay [1], in assay [2], in assay [3], in assay [4], in assay [5] and in assay [6] was > 30 µM (inactive) in each case. In addition, the Kd in assay [7] and in assay [8] was > 30 µM (inactive) throughout.
For `COc1cc2nccc(Oc3ccc(NC(=O)NC4CC4)c(Cl)c3)c2cc1C(N)=O` [LENVATINIB], the Kd in assay [1] is > 30 µM (inactive); in assay [2], > 30 µM (inactive); in assay [3] it was 0.218 µM (active); in assay [4] it was > 30 µM (inactive); in assay [5] it was > 30 µM (inactive); in assay [6] it was > 30 µM (inactive). The Kd in assay [7] and in assay [8] was > 30 µM (inactive) throughout.
`CNC(=O)c1ccc(C)c(-n2c(C)cc(OCc3ccc(F)cc3F)c(Br)c2=O)c1` [PH-797804]: the Kd in assay [1], in assay [2], in assay [3], in assay [4], in assay [5] and in assay [6] was > 30 µM (inactive) each time. The Kd in assay [7] and in assay [8] was > 30 µM (inactive) in each case.
Consider `C[C@@H](c1ccc2nccn2c1)n1nnc2ncc(-c3cnn(C)c3)nc21` [SAVOLITINIB], for which the Kd in assay [1], in assay [2], in assay [3], in assay [4], in assay [5] and in assay [6] was > 30 µM (inactive) each time. Also, the Kd in assay [7] and in assay [8] was > 30 µM (inactive) throughout.
Consider `N[C@@H]1CCCN(c2c(/C=C3\SC(=O)NC3=O)cccc2-c2ccccc2)C1`, for which the Kd in assay [1], in assay [2], in assay [3], in assay [4], in assay [5] and in assay [6] was > 30 µM (inactive) each time. The Kd in assay [7] and in assay [8] was > 30 µM (inactive) in each case.
Take `COc1cc(N2CCC(N3CCN(C)CC3)CC2)ccc1Nc1ncnc(Nc2ccccc2S(=O)(=O)C(C)C)n1` [ASP-3026]: the Kd is 1.32 µM (active) in assay [1]; > 30 µM (inactive) in assay [2]; > 30 µM (inactive) in assay [3]; > 30 µM (inactive) in assay [4]; 1.25 µM (active) in assay [5]; > 30 µM (inactive) in assay [6]. Further, the Kd in assay [7] and in assay [8] was > 30 µM (inactive) throughout.
For `Cc1cc([C@@H](C)Nc2ccccc2C(=O)O)c2nc(N3CCOCC3)cc(=O)n2c1` [AZD-6482], the Kd in assay [1], in assay [2], in assay [3], in assay [4], in assay [5] and in assay [6] was > 30 µM (inactive) throughout. In addition, the Kd in assay [7] and in assay [8] was > 30 µM (inactive) in each case.
For `CN1CCC(CNc2ccc3ncc(-c4cccc(OC(F)(F)F)c4)n3n2)CC1` [SGI-1776], the Kd in assay [1], in assay [2], in assay [3], in assay [4], in assay [5] and in assay [6] was > 30 µM (inactive) each time. Moreover, the Kd in assay [7] and in assay [8] was > 30 µM (inactive) in each case.
As for `CC(C)Nc1cc(-c2c[nH]c(C(=O)N[C@H](CO)c3cccc(Cl)c3)c2)c(Cl)cn1` [ULIXERTINIB], the Kd in assay [1], in assay [2], in assay [3], in assay [4], in assay [5] and in assay [6] was > 30 µM (inactive) each time. In addition, the Kd in assay [7] and in assay [8] was > 30 µM (inactive) in each case.
For the compound `O=c1sn(-c2cccc3ccccc23)c(=O)n1Cc1ccccc1` [TIDEGLUSIB], the Kd in assay [1], in assay [2], in assay [3], in assay [4], in assay [5] and in assay [6] was > 30 µM (inactive) in each case. The Kd in assay [7] and in assay [8] was > 30 µM (inactive) each time.
Regarding `Cc1ccc(-n2nc(C(C)(C)C)cc2NC(=O)NCc2cc(F)ccc2Oc2ccc3c(cnn3CCO)c2)cc1` [PEXMETINIB], the Kd in assay [1] was > 30 µM (inactive); in assay [2], > 30 µM (inactive); in assay [3] it was 1.14 µM (active); in assay [4], 2.67 µM (active); in assay [5], > 30 µM (inactive); in assay [6], > 30 µM (inactive). Also, the Kd in assay [7] is 0.222 µM (active); in assay [8], > 30 µM (inactive).
Take `CCN1CCN(Cc2ccc(-c3cc4c(N[C@H](C)c5ccccc5)ncnc4[nH]3)cc2)CC1` [AEE-788]: the Kd in assay [1] is > 30 µM (inactive); in assay [2], > 30 µM (inactive); in assay [3], 28.2 µM (active); in assay [4], > 30 µM (inactive); in assay [5] it was > 30 µM (inactive); in assay [6], > 30 µM (inactive). The Kd is 7.98 µM (active) in assay [7] and > 30 µM (inactive) in assay [8].

(Values after ChEMBL document CHEMBL3991601, “The target landscape of clinical kinase drugs” (Science, 2017).)
